Results published in US20090226393A1 (NITTO DENKO CORPORATION, priority 2008, published 2009).

Columns and labels:
[1] = Biodistribution in different organs (drug accumulation study); conditions: 48 hours post administration
Description: Plasma, tumor and samples of the major organ were collected at intervals out to 340 hours. […] Pharmacokinetic parameters were estimated using WinNonlin software using a non-compartment model.
For each drug, groups of 6 mice were anesthetized at various time points and 0.3 ml of blood, obtained by cardiac puncture, was collected into heparinized tubes. Thereafter, mice were sacrificed before recovering from anesthesia and the following tissues were harvested and frozen from each animal: each of the 4 tumors, lung, liver, spleen, both kidneys, skeletal muscle and heart. […] For each drug a total 72 mice were required (6 mice/time point, 12 time points).

[2] = female, nu/nu, mouse, in vivo, iv, 40 mg/kg
[3] = mouse, in vivo
[4] = tested on: B16 melanoma
[5] = tested on: NCI-H460 non-small cell lung cancer xenograft; conditions: 550 mg/kg paclitaxel equivalent, IV, q7dx2, compared to Abraxane
Excerpt: Dosage amounts may be adjusted based on the maximum tolerated dose (MTD) of the pharmaceutical composition.

Compound	amount retained in kidney [1]	amount retained in liver [1]	amount retained in lung [1]	amount retained in spleen [1]	T1/2 Terminal [2] [h]	detected in the feces [3]	tumor volume compared to Abraxane [4]	% TGD (tumor growth delay) [5] [%]
CC(=O)O[C@H]1C(=O)[C@@]2(C)[C@H]([C@H](OC(=O)c3ccccc3)[C@]3(O)C[C@H](OC(=O)[C@H](O)[C@@H](NC(=O)c4ccccc4)c4ccccc4)C(C)=C1C3(C)C)[C@]1(OC(C)=O)CO[C@@H]1C[C@@H]2O [PTX, Paclitaxel]	less than 2 μg/g	less than 2 μg/g	less than 2 μg/g	less than 2 μg/g	51	approximately 72%		
poly-(gamma-L-glutamyl glutamine)-paclitaxel [PGGA70K-PTX35]							significantly reduced tumor volume	136
